Patent US12655116B2, “Substituted isophthalic acid diamides” (Bayer Aktiengesellschaft, priority 2020, dated 2026)

Key:
[1] = test system: ECHCG; test: Post-emergence herbicidal action against ECHCG; assay type: in vivo, Echinochloa crus-galli
Method in brief: (§1)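 Herbicidal action is a visual percentage rating (0% = as untreated control, 100% = plants dead) made roughly 3 weeks after treatment. Plants were grown in sandy loam in the greenhouse and treated at the one-leaf stage, 2 to 3 weeks post-sowing. Treatment was a foliar spray of wettable-powder or emulsion-concentrate formulations at 600 to 800 l/ha water plus 0.2% wetting agent.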

[2] = test system: AVEFA; test: Pre-emergence herbicidal action against AVEFA; assay type: in vivo, Avena fatua; conditions: 80 g/ha, pre-emergence
Method in brief: (§2)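 Sandy loam pots, seeds covered with soil, then surface-treated with WP or EC formulations at 600–800 l/ha water plus 0.2% wetting agent. Greenhouse, 3 weeks. Percent damage vs untreated controls.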

[3] = test system: DIGSA; test: Post-emergence herbicidal action against DIGSA; assay type: in vivo, Digitaria sanguinalis; conditions: for Post-emergence action against DIGSA: 20 g/ha
Method in brief: as §1

[4] = test system: ECHCG; test: Pre-emergence herbicidal action against ECHCG; assay type: in vivo, Echinochloa crus-galli
Method in brief: as §2

[5] = test system: ABUTH; test: Pre-emergence herbicidal action against ABUTH; assay type: in vivo, Abutilon theophrasti; conditions: for Pre-emergence action against ABUTH (herbicidal activity): 80 g/ha, scored visually after 3 weeks vs untreated controls (100% = plants have died, 0% = like control plants); for Pre-emergence action against ABUTH (herbicidal activity in percent): dosage 20 g/ha, scored visually after 3 weeks vs untreated controls, 100% = plants have died, 0% = like control plants
Method in brief: as §2

[6] = test system: AMARE; test: Post-emergence herbicidal action against AMARE; assay type: in vivo, Amaranthus retroflexus; conditions: 20 g/ha, visual assessment about 3 weeks after treatment, 100% = plants have died, 0% = like control plants
Method in brief: as §1

[7] = test system: ALOMY; test: Pre-emergence herbicidal action against ALOMY; assay type: in vivo, Alopecurus myosuroides; conditions: 80 g/ha, pre-emergence, scored visually after 3 weeks vs untreated controls (100% = plants have died, 0% = like control plants)
Method in brief: as §2

[8] = test system: PHBPU; test: Post-emergence herbicidal action against PHBPU; assay type: in vivo, Pharbitis purpurea
Method in brief: as §1

[9] = test system: ALOMY; test: Post-emergence herbicidal action against ALOMY; assay type: in vivo, Alopecurus myosuroides; conditions: dosage 20 g/ha, visual assessment about 3 weeks after treatment vs untreated controls
Method in brief: as §1

[10] = test system: VERPE; test: Pre-emergence herbicidal action against VERPE; assay type: in vivo, Veronica persica; conditions: dosage 80 g/ha
Method in brief: as §2

[11] = test system: VIOTR; test: Pre-emergence herbicidal action against VIOTR; assay type: in vivo, Viola tricolor
Method in brief: as §2

[12] = test system: VERPE; test: Post-emergence herbicidal action against VERPE; assay type: in vivo, Veronica persica; conditions: 20 g/ha
Method in brief: as §1

[13] = test system: SETVI; test: Pre-emergence herbicidal action against SETVI; assay type: in vivo, Setaria viridis
Method in brief: as §2

[14] = test system: DIGSA; test: Pre-emergence herbicidal action against DIGSA; assay type: in vivo, Digitaria sanguinalis
Method in brief: as §2

[15] = test system: MATIN; test: Pre-emergence herbicidal action against MATIN; assay type: in vivo, Matricaria inodora
Method in brief: as §2

[16] = test system: PHBPU; test: Pre-emergence herbicidal action against PHBPU; assay type: in vivo, Pharbitis purpurea; conditions: dosage 80 g/ha
Method in brief: as §2

[17] = test system: AMARE; test: Pre-emergence herbicidal action against AMARE; assay type: in vivo, Amaranthus retroflexus
Method in brief: as §2

[18] = test system: VIOTR; test: Post-emergence herbicidal action against VIOTR; assay type: in vivo, Viola tricolor; conditions: 20 g/ha
Method in brief: as §1

[19] = 20 g/ha, scored visually after 3 weeks vs untreated controls, 100% = plants have died, 0% = like control plants
[20] = 80 g/ha, scored visually after 3 weeks vs untreated controls (100% = plants have died, 0% = like control plants)

Compound | Post-emergence action against ECHCG in % ([1]; dosage 20 g/ha) | Pre-emergence action against AVEFA in % [2] | Post-emergence action against DIGSA [3] | Pre-emergence action against ECHCG in % ([4]; 80 g/ha) | Pre-emergence action against ABUTH (herbicidal activity) [5] | Pre-emergence action against ABUTH (herbicidal activity in percent) [5] | Post-emergence action at 20 g/ha against AMARE in % [6] | Pre-emergence action against ALOMY (herbicidal activity) [7] | Post-emergence action against ALOMY in % [9] | Pre-emergence action against VERPE in % [10] | Pre-emergence action against VIOTR in % ([11]; dosage 20 g/ha) | Pre-emergence action against VIOTR in % ([11]; dosage 80 g/ha) | Post-emergence action against VERPE in % [12] | Pre-emergence action against SETVI in % ([13]; dosage 80 g/ha) | Pre-emergence action against DIGSA in % ([14]; dosage 20 g/ha) | Pre-emergence action against DIGSA in % ([14]; dosage 80 g/ha) | Pre-emergence action against MATIN in % ([15]; dosage 20 g/ha) | Pre-emergence action against MATIN in % ([15]; dosage 80 g/ha) | Pre-emergence action against PHBPU in % [16] | Pre-emergence action against AMARE in % [17, 19] | also measured
Cn1nnnc1NC(=O)c1ccc(C(F)F)c(C(=O)NCC2CC2)c1Br [Example 1-228] | 80% | 90% | 90% | 100% | 100% | 100% | 90% | 90% | 90% | 90% | 90% | 100% | 90% | 100% | 100% | 100% | 80% | 100% | 90% | 100% | Post-emergence action against DIGSA in % ([3]; 5 g/ha): 90%; Pre-emergence action against ECHCG in % ([4]; 20 g/ha): 90%; Post-emergence action against PHBPU in % ([8]; dosage 5 g/ha): 80%; Post-emergence action against PHBPU in % ([8]; dosage 20 g/ha): 80%; Pre-emergence action against AMARE in % [17, 20]: 100%; Post-emergence action against VIOTR in % [18]: 80%
Cn1nnnc1NC(=O)c1ccc(C(F)F)c(C(=O)NCC(F)F)c1Br [Example 1-230] | 80% | 90% | 90% | 90% | 100% | 90% | 100% | 90% | 90% | 100% | 100% | 100% | 80% | 100% | 90% | 100% | 90% | 100% | 90% | 100% | Post-emergence action against ECHCG in % ([1]; dosage 5 g/ha): 80%; Pre-emergence action against SETVI in % ([13]; dosage 20 g/ha): 90%; Pre-emergence action against AMARE in % [17, 20]: 100%
